These are literature values, as cited in patent US20180344690A1, “Methods and Formulation for Enhancing Response to Radiotherapy” (The Board of Trustees of the Leland Stanford Junior …, priority 2017, published 2018).

In one series the test system is multiple myeloma (MM). To be noted: cited from earlier work.
The test system of another series is APL. To be noted: untreated control 18 days; cytarabine vs cytarabine+Plerixafor p<0.0006; cited from earlier work.

As for `CC(C)C[C@H](NC(=O)[C@H](Cc1ccccc1)NC(=O)c1cnccn1)B(O)O` [bortezomib], in the series on multiple myeloma (MM) (bortezomib vs control P=0.041, combination vs control P=0.001, vs bortezomib alone P=0.021), the tumor progression result is given as “reduction in tumor progression compared with control”. In addition, the “tumor involvement in BM, liver and spleen” value with multiple myeloma (MM) (mouse, in vivo) was “significant decrease of tumor cells”.
Regarding `Nc1ccn([C@@H]2O[C@H](CO)[C@@H](O)[C@@H]2O)c(=O)n1` [cytarabine], in the series on APL, the median overall survival is 23 days.
